Assay results from patent US20230398137A1, “METHODS FOR LOWERING HBA1C LEVEL WITH A COMBINATION OF A BET BROMODOMAIN INHIBITOR AND A SODIUM DEPENDENT GLUCOSE TRANSPORT 2 INHIBITOR” (Resverlogix Corp., priority 2020, published 2023).
Read-outs that look alike come from different tables or passages of the source.

Assays:
HbA1c [1] = assay: BETonMACE Phase 3 trial (NCT02586155), post-hoc analysis of HbA1c from baseline to last visit on treatment (LVT); type: in vivo, human
Protocol: Apabetalone (RVX-208) was evaluated in a recently completed clinical Phase 3 trial (BETonMACE; NCT02586155) for the effect on MACE in type 2 diabetes patients with low HDL cholesterol (below 40 mg/dL for males and below 45 mg/dL for females) and a recent acute coronary syndrome (ACS) (preceding 7-90 days). All patients received high intensity statin treatment or maximum tolerated statin treatment, which was 20-40 mg daily or a maximum daily dose of 40 mg for rosuvastatin or 40-80 mg daily or a maximum daily dose of 80 mg for atorvastatin.
Patients (n=2425) with ACS in the preceding 7 to 90 days, with type 2 diabetes and low HDL cholesterol (≤40 mg/dl for men, ≤45 mg/dl for women), receiving intensive or maximum-tolerated therapy with atorvastatin or rosuvastatin, were assigned in double-blind fashion to receive apabetalone 100 mg orally twice daily or matching placebo.
Specifically, a total of 150 patients received both RVX-208 and an SGLT2 inhibitor; a total of 148 received an SGLT2 inhibitor, but no RVX-208; a total of 1062 received RVX-208, but no SGLT2 inhibitor; a total of 1058 received neither RVX-208 or an SGLT2 inhibitor.
Patients who were randomized and received at least one dose of SGLT2 treatment while actively receiving study drug (RVX-208 or placebo) were counted as those receiving a combination of SGLT2 treatment with either RVX-208 or placebo. Patients receiving more than one drug therapy within the SGLT2 inhibitor class were counted only once based upon whichever drug therapy patients continued taking at the end of treatment with study drug (RVX-208 or placebo). In cases where patients were receiving more than one drug therapy within the SGLT2 inhibitor class at the end of treatment with study drug, whichever SGLT2 inhibitor therapy was received for longer was counted.
The last visit on treatment (LVT) timepoint represented the longest study exposure duration for patients receiving RVX-208 or placebo with and without SGLT2 inhibitors and is the focus of this analysis.

HbA1c [2] = conditions: over the duration of the trial; 95% CI −0.61 to −0.56; p<0.001; cited from earlier work
HbA1c [3] = conditions: T2DM and albuminuric CKD, cited from earlier work
HbA1c [4] = conditions: cited from earlier work

With `COc1cc(OC)c2c(=O)[nH]c(-c3cc(C)c(OCCO)c(C)c3)nc2c1` [RVX-208, 2-(4-(2-hydroxyethoxy)-3,5-dimethylphenyl)-5,7-dimethoxyquinazolin-4(3H)-one] as the molecule, how does the “ability to reduce levels of HbA1c (in words)” value (HbA1c [1]; T2DM patients with a recent ACS) read?
The value was “did not demonstrate the ability to statistically reduce levels of HbA1c”.

What about the “median HbA1c at baseline” value (HbA1c [1]; T2DM patients with low HDL cholesterol and recent ACS on high intensity or maximum tolerated statin, baseline value of the group) of the same molecule?
The value was 7.3%.

What about the “median HbA1c at the last visit on treatment (LVT)” value (HbA1c [1]; T2DM patients with recent ACS on statin, apabetalone 100 mg orally twice daily where given, median time to LVT about 2 years) of the same molecule?
The value was 7.3%.

What about the “median change of HbA1c from baseline to LVT” value (HbA1c [1]; T2DM patients with recent ACS, FIG. 3) of the same molecule?
Its value is “+0.20%”.

And the “mean change of HbA1c from baseline to LVT” value (HbA1c [1]; T2DM patients with recent ACS, FIG. 4)?
Its value is “+0.22%”.

Which “mean difference in HbA1c between drug group and placebo group” value (HbA1c [2]) does the source give for `Cc1ccc([C@@H]2O[C@H](CO)[C@@H](O)[C@H](O)[C@H]2O)cc1Cc1ccc(-c2ccc(F)cc2)s1` [canagliflozin] here?
Its value is −0.58%.

And the “least-squares mean level of HbA1c lower than in the placebo group by” value (HbA1c [3]; at 13 weeks, 95% CI 0.26 to 0.37)?
Its value is 0.31%.

And the “overall mean difference in the reduction of HbA1c versus placebo” value (HbA1c [3]; throughout the trial, 95% CI 0.20 to 0.31)?
The value was 0.25%.

Which “reduction of HbA1c compared to placebo (adjusted mean difference)” value (HbA1c [4]; 10-mg group, after 12 weeks, 95% CI −0.58 to −0.49) does the source give for `OC[C@H]1O[C@@H](c2ccc(Cl)c(Cc3ccc(O[C@H]4CCOC4)cc3)c2)[C@H](O)[C@@H](O)[C@@H]1O` [empagliflozin] here?
Its value is 0.54%.

What about the “adjusted mean difference in HbA1c levels versus placebo” value (HbA1c [4]; 10-mg group, week 94, 95% CI −0.48 to −0.36) of the same molecule?
The value was −0.42%.

What about the “adjusted mean difference in HbA1c levels versus placebo” value (HbA1c [4]; 10-mg group, week 206, 95% CI −0.40 to −0.08) of the same molecule?
The value was −0.24%.

And the “adjusted mean difference in HbA1c compared to placebo” value (HbA1c [4]; 25-mg group, after 12 weeks, 95% CI −0.64 to −0.55)?
The value was −0.60 percentage points.

What about the “adjusted mean difference in HbA1c levels versus placebo” value (HbA1c [4]; 25-mg group, week 94, 95% CI −0.54 to −0.41) of the same molecule?
Its value is −0.47%.

What about the “adjusted mean difference in HbA1c levels versus placebo” value (HbA1c [4]; 25-mg group, week 206, 95% CI −0.51 to −0.20) of the same molecule?
The value was −0.36%.
